Reference: patent publication US20170114329A1, “SCALABLE ORGANOTYPIC MODELS OF TUMOR DORMANCY” (THE REGENTS OF THE UNIVERSITY OF CALIFORNIA, priority 2013, published 2017)
“Also recorded” adds a separate entry of the source.

What was measured:
Type in all cases: cell-based, human
[1] = test system: E4-EC microvascular networks; assay: Neovascular tip number in microvascular niche cultures; conditions: shNotch1 E4-EC vs shCtrl, day 7
Protocol: (§1) Microvascular niche cultures were generated with modifications to a previously described protocol, described in Evensen, L., et al. Mural cell associated VEGF is required for organotypic vessel formation. PLoS One 4, e5798 (2009), hereby incorporated by reference in its entirety. LFs or MSCs were seeded alone at a density of 5×10^4 cells/well in 96-well culture plates or with mCherry-E4-ECs at a 5:1 ratio to generate lung-like or BoMa-like microvascular niches, respectively. Cells were suspended in EGM-2 at a concentration 5×10^4 cells/100 μl (stroma only) or 6×10^4 cells/100 μl (stroma+ECs). After depositing 100 μl of cellular suspension per well of a 96-well plate, plates were left undisturbed on a flat surface for 20 min to allow even cell seeding prior to incubation.
Network properties were counted manually using the “cell counter” application in ImageJ.
E4ORF1-HUVECs were infected at 5 MOI with custom-made lentiviruses (Sigma) containing shRNA targeting human Notch1 in a pLKO.1-puro-CMV-TagRFP vector. Empty vector was used as a control (shCtrl).

[2] = test system: Notch1; assay: Notch1 knockdown in E4ORF1-HUVEC, immunoblot; conditions: normalized to Lamin A/C
Text: E4ORF1-HUVECs were infected at 5 MOI with custom-made lentiviruses (Sigma) containing shRNA targeting human Notch1 in a pLKO.1-puro-CMV-TagRFP vector. Empty vector was used as a control (shCtrl). Sequences for shRNA were as follows:
shNotch1-E4-ECs and shCtrl-E4-ECs were lysed in 2% SDS/PBS. Twenty μg of each lysate was then separated on a Tris-Glycine 4-20% gel. Notch1 was probed with a rabbit polyclonal antibody (AbCam ab27526, 1:500). The blot was stripped and re-probed with a rabbit polyclonal antibody to the nuclear membrane protein Lamin A/C, used here as a loading control (Santa Cruz Biotechnology sc-20681, 1:2000).

[3] = test system: T4-2 cells; assay: Growth of YFP T4-2 breast cancer cells on lung stroma (LF) cultures; conditions: add-back to T4-2 cells plated on lung stroma without ECs; normalized to vehicle condition
Protocol: as §1
After 7 days, YFP tumor cells were suspended in unsupplemented DMEM/F12 (800 cells/ml). YFP tumor cells were seeded (100 μl/well) after washing cultures thrice with PBS. […]
A macro was written using NIH ImageJ open source software to remove bias from data quantification. […] The total area fraction of the 6×6 tiled image occupied by YFP cells was then calculated. […] For each image, the measured area fraction at day 10 was normalized by the corresponding day 0 value in order to account for any small variations in seeding density from well-to-well.

Substance | number of endothelial tips [1] | endothelial cell Notch1 expression at the protein level [2] | tumor cell growth (normalized tumor cell area fraction) [3]
sh8393: shRNA targeting human Notch1, SEQ ID NO: 1, in pLKO.1-puro-CMV-TagRFP lentiviral vector (CCGGCTTTGTTTCAGGTTCAGTATTCTCGAGAATACTGAACCTGAAACAAAGTTTTT) | significant reduction in the number of endothelial tips | significantly reduced endothelial cell Notch1 expression | 
thrombospondin-1 [TSP-1] |  |  | significant reduction in tumor cell growth; also recorded: sufficient to suppress BCC growth on lung stroma
